EP0318240A2, “Peptide, adsorbent, method for production thereof, and method for use thereof” (AGENCY OF INDUSTRIAL SCIENCE & TECHNOLOGY MINISTRY OF …, priority 1987, dated 1989)

Assay: Solubility of peptide in the phosphate buffer solution used for immobilization
Assay type: physicochemical
Details: phosphate buffer solution (0.02 mol/liter) of pH 7.4
Method: • (a) In 50 ml of dioxane obtained by distillation in the presence of sodium metal, 10 g of cellulose particles (marketed by Seikagaku Kogyo Co., Ltd. under the tradename "CM-Cellulofine CH") were suspended. In the suspension, 0.5 g of N-hydroxysuccinimide and 1.0 g of dicyclohexylcarbodiimide added thereto were shaken overnight at room temperature. The resultant mixture was washed with a phosphate buffer solution (0.02 mol/liter) of pH 7.4 and suction filtered. The particles consequently obtained and 20 ml of a phosphate buffer solution (0.02 mol/liter) of pH 7.4 containing 20 mg of the peptide of Example 1 added thereto were stirred overnight at a temperature of 4°C. The mixture consequently obtained was suction filtered. […] Thus, about 10 g of cellulose particles (the adsorbent not heat treated) having immobilized thereon 20 mg of the peptide of Example 1 were obtained. • (b) In 5-ml aliquots of a phosphate buffer solution (0.02 mol/liter) of pH 7.4 containing sodium chloride in a concentration of 0.15 mol/liter, the peptide-immobilized cellulose particles obtained as described above were suspended in a unit amount of 1 g. […]

solubility in the phosphate buffer solution: low solubility
Substance: H-Leu-Leu-Gly-Trp-Lys-His-Trp-Val-Tyr-Tyr-Thr- C y s - C^y s -Pro-Asp-Thr-Pro-Tyr-Leu-Asp-OH [Referential Example 2]
